Source: patent US20140039056A1, “BROMFENAC ORGANIC SALTS AND PREPARATION METHOD, COMPOSITION AND USE THEREOF” (SHENYANG XINGQI PHARMACEUTICAL CO., LTD., priority 2010, published 2014)
Counter-ions that a name gives are not always drawn.

Experiments:
[1] = Tissue distribution test (muscle tissue under skin after application to the back); details: rats; for Concentration in muscle tissue / concentration at 0 h / concentration at 2 h / concentration at 4 h / concentration at 6 h / concentration at 8 h / concentration at 10 h: n = 3; for time at which distribution in tissue reaches maximum values (peak concentrations): muscle tissue under skin; for concentration distributed in tissue compared with bromfenac sodium: muscle tissue; for concentration at 0 h / concentration at 2 h / concentration at 4 h / concentration at 6 h / concentration at 8 h / concentration at 10 h: rat, 1 g preparation, Concentration in muscle tissue
Method: Preparation of bromfenac salt solutions: 0.25 g samples of bromfenac sodium, bromfenac diethylamine salt as prepared in Example 1 and bromfenac trometamol salt as prepared in Example 2 were precisely weighed separately, placed in 25 ml volumetric flasks respectively, metered volume to obtain stock solutions for standby use.
Chromatography conditions: detector: ultraviolet absorption detector (wavelength: 266 nm). Chromatography column: octadecyl silica gel column (4.6 mm×150 mm, 5 μm). Mobile phase: precisely weighed ammonium acetate 3.85 g, added with water to the metered volume of 1000 mL. 700 mL of this solution was taken and added with 300 mL acetonitrile. Flow rate: 1.0 mL/min.
Plotting standard curves: 200 μl samples of blank tissue were taken, separately added with 50 μl of series standard solutions of bromfenac sodium, bromfenac diethylamine salt and bromfenac trometamol salt separately, added with 50 μl of internal standard respectively, to form sample solutions with equivalent tissue concentrations of bromfenac sodium, bromfenac diethylamine salt and bromfenac trometamol salt as 50, 100, 250, 500, 1000, 5000, 10000 ng/ml, which were separately weighed precisely to take 20 μl and injected into chromatography and separately assayed.
1) On the test day, removed short hair on the back of rats were with a electric hair clipper to expose surface layer of skin, while trying to avoid breaking skin during hair cutting, and then washed unhairing region with a large quantity of water;
2) anesthetized rats using 10% chloral hydrate in anesthetic agent dose of 3.5 ml/kg;
3) randomly divided the rats into 3 groups, 15 rats per group. On the unhairing region of back, the rats of 3 groups were separately administered with 1 g of bromfenac sodium, bromfenac diethylamine and Bromfenac trometamol preparations, and the administration regions were covered with freshness-keeping plastic film;
4) executed rats before administration (0 hours) and at 2 hours, 4 hours, 6 hours, 8 hours, 10 hours after administration, took muscle tissues under skin of administration sites;
5) simply washed muscle tissues with physiological saline, then absorbed excessive water with filter paper;
6) precisely weighed 1 g of muscle tissue, cut into pieces, homogenizing with 3 ml of physiological saline in electric grinding mill. A homogeneous muscle tissue homogenate was obtained after muscle tissue was ground completely;
7) took […] of tissue sample, added with 50 μL of an internal standard solution, mixed homogeneously, added with 1 mL of methanol, mixed by vortex for 1 min, centrifuged for 5 min (3500 rpm), separated and placed upper layer organic phase into another tube, blow-dried with 37° C. air, dissolved the residue by adding 100 μL of mobile phase, mixed by vortex, and took 20 μL to perform HPLC analysis.

[2] = Chemical stability in aqueous state (25° C., dark); assay type: physicochemical; details: for degradation products and content changes in aqueous solution: dark conditions, in words
[3] = system: swelling of auricle caused by xylene in mice; experiment: Test of effects on swelling of auricle caused by xylene in mice; assay type: in vivo; details: for effect on swelling of auricle caused by xylene in mice: in words; for Swelling degree: weight difference between two ears, lavage 50 mL/Kg of 1 g/100 ml solution twice per day for 7 days, mice
Method: Test grouping: 40 mice, bodyweight 20±2 g, randomly divided into 4 groups, 10 mice per group, i.e., physiological control group, bromfenac sodium group, bromfenac diethylamine salt group, and bromfenac trometamol salt group.
Test method: the mice of each test group were administered with physiological saline, solution of bromfenac sodium, solution of bromfenac diethylamine salt and solution of bromfenac trometamol salt, twice per day via lavage in lavage dose of 50 mL/Kg, for consecutive 7 days, 1 h after the last administration, xylene in dose of 0.05 mL/mouse was coated on right ears of mice of each test group, while their left ears were used as control, the mice were executed after 30 min, ear parts that were at the same place and had the same area were cut from both ears by a puncher with a diameter of 6 mm, and weighed with ten thousandth electronic analytical balance, and the weight difference between two ears was used as index of swelling.

[4] = system: swelling of foot caused by egg white in rats; experiment: Test of effects on swelling of foot caused by egg white in rats; assay type: in vivo; details: for effect on voix pedis swelling caused by egg white in rats: within 0.5 hours to 6 hours, versus physiological saline control group, in words
Method: Test grouping: 40 rats, bodyweight 200-220 g, randomly divided into 4 groups, 10 rats per group, i.e., physiological saline control group, bromfenac sodium group, bromfenac diethylamine salt group, and bromfenac trometamol salt group.
The rats of each test group were administered with physiological saline, solution of bromfenac sodium, solution of bromfenac diethylamine salt and solution of bromfenac trometamol salt, twice per day via lavage in lavage dose of 50 mL/Kg, for consecutive 7 days, before the last administration, volumes of voix pedis of normal right and left hindfeet of each rat were measured, and the measurement was performed by blood capillary volume method. The linedrawing position at ankle joint of rat was adjusted so that the volumes of voix pedis of right and left hindfeet were about 1 mL, 0.5 hours after the last administration, 0.1 mL of newly prepared 10% egg white liquid was subcutaneously injected to voix pedis of right and left hindfeet of rats respectively, and the volumes of voix pedis of right and left hindfeet of rats were measured again at 0.5, 1, 2, 4, 6 hours after injection of egg white, and swelling rate was calculated (voix pedis swelling rate=voix pedis volume at different time after injection of egg white−voix pedis volume at the same side before injection of egg white/voix pedis volume at the same side before injection of egg white), and the results were shown in Table 5.

[5] = 0.5 hours after injection of egg white
[6] = 0.5 hours after injection of egg white, lavage 50 mL/Kg twice per day for 7 days
[7] = 1.0 hours after injection of egg white
[8] = 2.0 hours after injection of egg white
[9] = 4.0 hours after injection of egg white
[10] = 6.0 hours after injection of egg white
[11] = Normal rats (before egg white), lavage 50 mL/Kg twice per day for 7 days

Nc1c(CC(=O)O)cccc1C(=O)c1ccc(Br)cc1 [Bromfenac diethylamine salt, bromfenac diethylamine salt]
Concentration in muscle tissue ([1]; 0 hours (before administration)): 0 ng/mL
Concentration in muscle tissue ([1]; 2 hours after administration of 1 g preparation on back skin): 1092.1 ng/mL
Concentration in muscle tissue ([1]; 4 hours after administration of 1 g preparation on back skin): 2657.6 ng/mL
Concentration in muscle tissue ([1]; 6 hours after administration of 1 g preparation on back skin): 1803.7 ng/mL
Concentration in muscle tissue ([1]; 8 hours after administration of 1 g preparation on back skin): 1108.3 ng/mL
Concentration in muscle tissue ([1]; 10 hours after administration of 1 g preparation on back skin): 262.4 ng/mL
time at which distribution in tissue reaches maximum values (peak concentrations) [1]: 2 h
concentration distributed in tissue compared with bromfenac sodium [1]: significantly greater
content (HPLC), aqueous state ([2]; 25° C., dark, 1 week): 99.5%
content (HPLC), aqueous state ([2]; 25° C., dark, 2 weeks): 99.4%
content (HPLC), aqueous state ([2]; 25° C., dark, 3 weeks): 99.2%
content (HPLC), aqueous state ([2]; Initial): 99.5%
degradation products and content changes in aqueous solution [2]: not observed
effect on swelling of auricle caused by xylene in mice [3]: significant inhibition effects
Swelling degree [3]: 5.37 ± 0.50 mg
voix pedis swelling rate [4, 5]: (0.65 ± 0.08)
voix pedis volume [4, 6]: 1.61 ± 0.08 mL
voix pedis swelling rate [4, 7]: (0.58 ± 0.08)
voix pedis volume [4, 7]: 1.55 ± 0.09 mL
voix pedis swelling rate [4, 8]: (0.41 ± 0.08)
voix pedis volume [4, 8]: 1.38 ± 0.06 mL
voix pedis swelling rate [4, 9]: (0.23 ± 0.05)
voix pedis volume [4, 9]: 1.21 ± 0.06 mL
voix pedis swelling rate [4, 10]: (0.08 ± 0.06)
voix pedis volume [4, 10]: 1.06 ± 0.08 mL
voix pedis swelling rate ([4]; Normal rats): (0.65 ± 0.08)
voix pedis volume [4, 11]: 1.61 ± 0.08 mL
effect on voix pedis swelling caused by egg white in rats [4]: significantly inhibit

Nc1c(CC(=O)[O-])cccc1C(=O)c1ccc(Br)cc1.[Na+] [Bromfenac sodium, 2-amino-3-(4-bromobenzoyl)phenylacetic acid sodium salt sesquialter hydrate, reference compound]
time at which distribution in tissue reaches maximum values (peak concentrations) [1]: 2 h
concentration at 0 h ([1]; in vivo, 0 hours (before administration)): 0 ng/mL
concentration at 2 h ([1]; in vivo, 2 hours after administration of 1 g preparation on back skin): 238 ng/mL
concentration at 4 h ([1]; in vivo, 4 hours after administration of 1 g preparation on back skin): 693 ng/mL
concentration at 6 h ([1]; in vivo, 6 hours after administration of 1 g preparation on back skin): 509 ng/mL
concentration at 8 h ([1]; in vivo, 8 hours after administration of 1 g preparation on back skin): 313 ng/mL
concentration at 10 h ([1]; in vivo, 10 hours after administration of 1 g preparation on back skin): 130 ng/mL
content (HPLC), aqueous state ([2]; 25° C., dark, 1 week): 99.5%
content (HPLC), aqueous state ([2]; 25° C., dark, 2 weeks): 99.4%
content (HPLC), aqueous state ([2]; 25° C., dark, 3 weeks): 99.1%
content (HPLC), aqueous state ([2]; Initial): 99.6%
degradation products and content changes in aqueous solution [2]: not observed
effect on swelling of auricle caused by xylene in mice [3]: significant inhibition effects
Swelling degree [3]: 5.45 ± 0.36 mg
voix pedis swelling rate [4, 5]: (0.58 ± 0.06)
voix pedis volume [4, 6]: 1.56 ± 0.11 mL
voix pedis swelling rate [4, 7]: (0.53 ± 0.07)
voix pedis volume [4, 7]: 1.51 ± 0.10 mL
voix pedis swelling rate [4, 8]: (0.40 ± 0.09)
voix pedis volume [4, 8]: 1.39 ± 0.11 mL
voix pedis swelling rate [4, 9]: (0.22 ± 0.08)
voix pedis volume [4, 9]: 1.20 ± 0.10 mL
voix pedis swelling rate [4, 10]: (0.06 ± 0.05)
voix pedis volume [4, 10]: 1.04 ± 0.06 mL
voix pedis swelling rate ([4]; Normal rats): (0.58 ± 0.06)
voix pedis volume [4, 11]: 1.51 ± 0.11 mL
effect on voix pedis swelling caused by egg white in rats [4]: significantly inhibit

Nc1c(CC(=O)O)cccc1C(=O)c1ccc(Br)cc1 [Bromfenac trometamol salt, bromfenac trometamol salt]
time at which distribution in tissue reaches maximum values (peak concentrations) [1]: 2 h
concentration distributed in tissue compared with bromfenac sodium [1]: significantly greater
concentration at 0 h ([1]; muscle tissue under skin of administration site, topical, 0 hours (before administration)): 0 ng/mL
concentration at 2 h ([1]; muscle tissue under skin of administration site, topical, 2 hours after administration of 1 g preparation on back skin): 852 ng/mL
concentration at 4 h ([1]; muscle tissue under skin of administration site, topical, 4 hours after administration of 1 g preparation on back skin): 1490 ng/mL
concentration at 6 h ([1]; muscle tissue under skin of administration site, topical, 6 hours after administration of 1 g preparation on back skin): 1100 ng/mL
concentration at 8 h ([1]; muscle tissue under skin of administration site, topical, 8 hours after administration of 1 g preparation on back skin): 790 ng/mL
concentration at 10 h ([1]; muscle tissue under skin of administration site, topical, 10 hours after administration of 1 g preparation on back skin): 201 ng/mL
content (HPLC), aqueous state ([2]; 25° C., dark, 2 weeks): 99.3%
content (HPLC), aqueous state ([2]; 25° C., dark, 3 weeks): 99.1%
degradation products and content changes in aqueous solution [2]: not observed
effect on swelling of auricle caused by xylene in mice [3]: significant inhibition effects
Swelling degree [3]: 5.41 ± 0.47 mg
voix pedis swelling rate [4, 5]: (0.63 ± 0.09)
voix pedis volume [4, 6]: 1.59 ± 0.09 mL
voix pedis swelling rate [4, 7]: (0.57 ± 0.10)
voix pedis volume [4, 7]: 1.54 ± 0.11 mL
voix pedis swelling rate [4, 8]: (0.44 ± 0.13)
voix pedis volume [4, 8]: 1.41 ± 0.13 mL
voix pedis swelling rate [4, 9]: (0.20 ± 0.10)
voix pedis volume [4, 9]: 1.24 ± 0.10 mL
voix pedis swelling rate [4, 10]: (0.10 ± 0.07)
voix pedis volume [4, 10]: 1.08 ± 0.08 mL
voix pedis swelling rate ([4]; Normal rats): (0.63 ± 0.09)
voix pedis volume [4, 11]: 1.59 ± 0.09 mL
effect on voix pedis swelling caused by egg white in rats [4]: significantly inhibit
